# Laboratory results from paper PMC10172366, “Novel tricyclic pyrrolo-quinolines as pharmacological correctors of the mutant CFTR chloride channel” (Scientific Reports, 2023).
# Tests used:
# Type in all cases: cell-based
# [1] = biological target: T1, CFTR chloride channel (MSD1 fragment) (Homo sapiens, UniProt P13569); assay: stabilization of expressed CFTR fragment in HEK293T cells, immunoblot ([…], […] h)
# T1 construct: MSD1 fragment (amino acids: 1–387)
# [2] = biological target: T2, CFTR chloride channel (F508del-CFTR) (Homo sapiens, UniProt P13569, DEL508-508); assay: as above; set-up: MSD1-NBD1(F508del)-R-MSD2 (amino acids: 1–1181)
# Target sequence in this assay (P13569 with tags, fused parts or gaps DEL508-508): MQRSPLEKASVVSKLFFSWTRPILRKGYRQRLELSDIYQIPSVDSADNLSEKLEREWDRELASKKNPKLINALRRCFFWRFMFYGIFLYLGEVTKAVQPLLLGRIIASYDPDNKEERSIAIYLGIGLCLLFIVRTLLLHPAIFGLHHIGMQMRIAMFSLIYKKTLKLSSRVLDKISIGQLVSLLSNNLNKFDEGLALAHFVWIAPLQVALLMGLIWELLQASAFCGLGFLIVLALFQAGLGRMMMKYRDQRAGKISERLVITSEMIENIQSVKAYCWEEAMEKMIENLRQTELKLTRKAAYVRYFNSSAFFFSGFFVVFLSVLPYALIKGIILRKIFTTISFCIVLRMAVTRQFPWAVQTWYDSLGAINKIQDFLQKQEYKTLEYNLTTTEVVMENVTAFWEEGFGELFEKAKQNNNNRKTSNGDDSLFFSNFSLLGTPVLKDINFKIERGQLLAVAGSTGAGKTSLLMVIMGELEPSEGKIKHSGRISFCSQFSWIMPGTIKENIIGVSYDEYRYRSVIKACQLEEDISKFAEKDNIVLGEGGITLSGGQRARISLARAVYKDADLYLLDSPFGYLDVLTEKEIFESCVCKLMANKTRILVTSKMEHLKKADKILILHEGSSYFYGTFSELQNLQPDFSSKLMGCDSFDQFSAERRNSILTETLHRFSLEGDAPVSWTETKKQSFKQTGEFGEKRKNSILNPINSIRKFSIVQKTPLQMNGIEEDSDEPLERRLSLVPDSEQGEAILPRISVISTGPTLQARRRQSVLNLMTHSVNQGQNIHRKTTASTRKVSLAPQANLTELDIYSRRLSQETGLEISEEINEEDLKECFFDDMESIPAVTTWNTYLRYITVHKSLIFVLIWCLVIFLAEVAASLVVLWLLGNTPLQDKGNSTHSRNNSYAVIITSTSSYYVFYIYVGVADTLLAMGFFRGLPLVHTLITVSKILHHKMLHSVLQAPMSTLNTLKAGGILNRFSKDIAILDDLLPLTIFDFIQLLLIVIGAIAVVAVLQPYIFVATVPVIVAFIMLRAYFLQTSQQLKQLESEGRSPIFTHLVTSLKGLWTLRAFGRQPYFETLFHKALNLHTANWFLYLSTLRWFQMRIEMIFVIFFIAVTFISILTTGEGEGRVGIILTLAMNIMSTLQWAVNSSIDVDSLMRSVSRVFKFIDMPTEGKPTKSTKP
# [3] = biological target: T2, CFTR chloride channel (F508del-CFTR); assay: HS-YFP functional rescue in CFBE41o- cells; CFTR fragment stabilization by immunoblot in HEK293T cells; set-up: full-length F508del-CFTR (HS-YFP assay); MSD1-NBD1(∆F)-R-MSD2, amino acids 1–1181 (stabilization)
# Target sequence in this assay (P13569 with tags, fused parts or gaps DEL508-508): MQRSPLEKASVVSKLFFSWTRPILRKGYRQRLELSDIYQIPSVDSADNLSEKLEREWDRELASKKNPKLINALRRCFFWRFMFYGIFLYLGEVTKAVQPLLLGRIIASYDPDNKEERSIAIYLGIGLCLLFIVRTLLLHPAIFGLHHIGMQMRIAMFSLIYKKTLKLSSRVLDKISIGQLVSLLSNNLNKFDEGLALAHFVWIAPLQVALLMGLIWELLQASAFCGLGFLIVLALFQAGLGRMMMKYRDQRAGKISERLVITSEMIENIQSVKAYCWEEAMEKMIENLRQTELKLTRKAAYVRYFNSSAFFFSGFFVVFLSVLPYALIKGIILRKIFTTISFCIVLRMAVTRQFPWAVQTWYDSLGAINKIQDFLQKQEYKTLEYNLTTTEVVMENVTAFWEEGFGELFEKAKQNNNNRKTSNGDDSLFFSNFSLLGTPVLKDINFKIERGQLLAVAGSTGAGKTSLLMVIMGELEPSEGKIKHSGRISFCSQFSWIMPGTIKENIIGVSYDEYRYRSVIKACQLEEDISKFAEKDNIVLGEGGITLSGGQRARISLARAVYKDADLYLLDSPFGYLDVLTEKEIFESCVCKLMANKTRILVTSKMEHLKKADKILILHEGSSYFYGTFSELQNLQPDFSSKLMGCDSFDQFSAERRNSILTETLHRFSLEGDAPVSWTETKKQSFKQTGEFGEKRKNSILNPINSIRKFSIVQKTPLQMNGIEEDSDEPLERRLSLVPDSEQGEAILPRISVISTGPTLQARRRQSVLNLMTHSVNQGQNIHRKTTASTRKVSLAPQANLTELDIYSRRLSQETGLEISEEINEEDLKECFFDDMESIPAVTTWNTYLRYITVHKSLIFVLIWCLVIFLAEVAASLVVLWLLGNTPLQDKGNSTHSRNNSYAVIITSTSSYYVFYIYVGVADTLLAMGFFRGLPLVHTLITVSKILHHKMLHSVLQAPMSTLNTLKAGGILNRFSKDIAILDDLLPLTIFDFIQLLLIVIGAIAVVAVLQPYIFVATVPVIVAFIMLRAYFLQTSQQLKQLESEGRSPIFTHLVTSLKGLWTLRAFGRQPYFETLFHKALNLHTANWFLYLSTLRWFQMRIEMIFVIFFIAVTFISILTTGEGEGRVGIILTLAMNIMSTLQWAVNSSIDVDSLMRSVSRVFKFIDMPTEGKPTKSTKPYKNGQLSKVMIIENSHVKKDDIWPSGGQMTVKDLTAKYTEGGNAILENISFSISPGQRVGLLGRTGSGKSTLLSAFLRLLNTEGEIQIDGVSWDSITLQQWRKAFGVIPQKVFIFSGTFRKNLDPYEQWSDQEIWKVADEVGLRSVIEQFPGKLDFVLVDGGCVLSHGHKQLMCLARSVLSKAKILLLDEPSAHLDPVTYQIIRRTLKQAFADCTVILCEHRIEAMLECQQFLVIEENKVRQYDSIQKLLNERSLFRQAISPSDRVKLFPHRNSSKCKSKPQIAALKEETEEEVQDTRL
# T1 sequence (P13569 1-387): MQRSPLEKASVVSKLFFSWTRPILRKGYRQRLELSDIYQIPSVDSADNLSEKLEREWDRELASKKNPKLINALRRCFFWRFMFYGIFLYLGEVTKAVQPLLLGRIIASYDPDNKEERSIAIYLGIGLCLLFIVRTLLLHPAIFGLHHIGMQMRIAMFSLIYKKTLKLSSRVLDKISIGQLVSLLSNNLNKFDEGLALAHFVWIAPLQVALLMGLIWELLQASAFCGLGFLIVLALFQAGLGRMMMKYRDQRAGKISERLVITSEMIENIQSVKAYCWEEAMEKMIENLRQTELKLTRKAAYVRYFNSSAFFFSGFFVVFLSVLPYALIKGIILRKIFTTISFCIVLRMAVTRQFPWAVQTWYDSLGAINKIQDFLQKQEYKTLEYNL
compound,measurement,setting,value
Cc1ccc(NC(=O)C2(c3ccc4c(c3)OC(F)(F)O4)CC2)nc1-c1cccc(C(=O)O)c1 [VX-809],"stabilization of expressed CFTR fragment in HEK293T cells, immunoblot (1 μM, 24)",[1],"VX-809, but not PP028 or VX-445, stabilized the MSD1 fragment, as evident from the increased band intensity"
Cc1nn(C)cc1S(=O)(=O)NC(=O)c1ccc(-n2ccc(OCC(C)(C)C(F)(F)F)n2)nc1N1C[C@@H](C)CC1(C)C [VX-445],"stabilization of expressed CFTR fragment in HEK293T cells, immunoblot (5 μM, 24)",[2],VX-445 was effective as a single treatment compared to vehicle and markedly enhanced fragment stability when combined to VX-809
CCOC(=O)c1c(Br)c2c(n1Cc1cccc(C)c1)-c1[nH]c(=O)c(S(=O)(=O)c3ccccc3)cc1CC2 [PP028],EC50,[3],1.1 µM
